Experiment: gradient 5% acetonitrile 3 min, to 50% in 2 min, to 85% in 15 min, held 3 min, 100 µL/min
Conditions: column: Zorbax Extend-C18 2.1 x 50 mm; eluents: water / acetonitrile, 0.1% formic acid
Method in brief: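 Mixtures of ~100 pure standards were chromatographed on a Zorbax Extend-C18 column (2.1 × 50 mm, 1.8 μm) at 100 μL/min using water and acetonitrile, each with 0.1% formic acid. Detection used a quadrupole time-of-flight mass spectrometer in positive and negative ionization mode, and data collection spanned 3 months. Retention time was obtained from adduct peaks picked computationally and each checked manually.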

Row | SMILES | RP-LC retention time [s]
1 | COC(=O)c1c(C)[nH]c(C(=O)N2CCC(CC(=O)N3CCN(c4cccc(C)c4)C(C)C3)CC2)c1C (stereo not drawn) | 754
2 | COCCc1noc(C2CN(C(=O)c3ocnc3C)C2)n1 | 595
3 | O=C(NCc1ccco1)c1cc(-c2cccnc2)nc2ccc(Cl)cc12 | 788
4 | COc1cccc(-n2ccn3cc(-c4ccc(F)cc4)nc3c2=O)c1 | 821
5 | O=C(CSc1nccc2ccccc12)Nc1ccccc1C(F)(F)F | 1080
6 | Cc1cc(C(=O)N2CCCCC2)c2c(=O)n(CC(=O)Nc3ccc(F)cc3F)c(=O)n(C)c2n1 | 816
7 | COCCNc1c(-c2ccc(OC)cc2)nc2sc(C(=O)N(C)C)c(C)n12 | 698
8 | CCc1nnc(-c2ccc(NC(=O)CCc3ccc(OC)cc3)cc2)o1 | 795
9 | O=C1c2oc3ccccc3c(=O)c2C(c2cccnc2)N1c1nccs1 (stereo not drawn) | 708
10 | Cc1[nH]c(C(=O)N2CCC(CC(=O)NCCN3CCCCCC3)CC2)c(C)c1C | 626
11 | O=C1NCCCn2cc(S(=O)(=O)Nc3ccc(C(F)(F)F)cc3)cc21 | 728
12 | Cc1c(Cl)cccc1NC(=O)CN1CCc2[nH]c3c(C)cc(F)cc3c(=O)c2C1 | 662
13 | CSc1ccc(-c2nc3cnccn3c2Nc2ccccc2)cc1 | 930
14 | CCC(=O)N1CCc2cc(-c3ccc(C(=O)NCCCN4CCCC4=O)cc3)ccc21 | 712
15 | Cc1cc(C)n(CC(=O)N[C@@H]2CN(S(C)(=O)=O)C[C@H]2CN(C)C)n1 | 564
16 | O=C(Cn1ccc2ccccc21)Nc1nccs1 | 748
17 | CCN1CCN(c2cc(C)c3cc(NC(=O)c4ccco4)ccc3n2)CC1 | 560
18 | COCCCNC(=O)Cn1c(=O)c(S(=O)(=O)c2ccccc2)cc2ccccc21 | 705
19 | CCn1c(=O)c2c(cc(C)n2C)n(CC(=O)Nc2cc(OC)cc(OC)c2)c1=O | 779
20 | O=C(O)c1cccn2c(=O)c3cc(F)ccc3nc12 | 681
21 | Cc1cc(=O)n(CC(=O)Nc2cccc(F)c2)c(N2CCOCC2)n1 | 666
22 | COC(=O)c1ccc(NC(=O)CSc2nnc(C)c3cnn(-c4ccccc4)c23)cc1 | 705
23 | COc1ccc(N2CCN(C(=O)c3cc(NC(=O)C(C)C)cc4nc(C)ccc34)CC2)cc1 | 636

Row | SMILES | RP-LC retention time [s]
24 | Cc1ccc(CNC(=O)c2cnn3c(-c4ccc(Cl)cc4)ccnc23)o1 | 1050
25 | COc1ccc(-c2noc(-c3ccc(N4CCN(Cc5ccc6c(c5)OCO6)CC4)nc3)n2)cc1 | 785
26 | Cc1ccsc1C(=O)Nc1cccn2cnnc12 | 666
27 | O=C(NC1CCCCC1)N1CCN(CCn2c(-c3ccncc3)nc3cccnc32)CC1 | 585
28 | CCNc1nccc(N2CCC(CC(=O)NCC(C)C)CC2)n1 | 563
29 | CCc1nnc(-c2cccs2)o1 | 731
30 | Nc1ccc(Nc2nc(-c3ccc(Cl)cc3)cs2)cc1 | 947
31 | Cc1cc(OCC(=O)N[C@@H](CC(C)C)C(=O)O)c2c3c(c(=O)oc2c1)CCC3 | 822
32 | Cc1noc(C2CN(C(=O)c3n[nH]c4ccccc34)CC23CCN(C)CC3)n1 (stereo not drawn) | 1010
33 | CC1=C(C(=O)Nc2ccccc2F)C2(CCN(C(C)C)CC2)OC1=O | 613
34 | COCCC(=O)Nc1cnn(-c2ncc(N3CCCC3)cn2)c1 | 642
35 | COc1ccc(OC)c(NC(=O)NC2CCN(c3ccc(F)cc3)C2=O)c1 (stereo not drawn) | 716
36 | Cc1ccc(Nc2nc3ccncc3n(C(C)C)c2=O)cc1F | 722
37 | CCn1cc(S(=O)(=O)Nc2ccc(F)cc2F)c2cccnc21 | 814
38 | CCC(C)C(NC(=O)Cc1cccc(OC)c1)C(=O)Nc1nc2ccccc2[nH]1 (stereo not drawn) | 733
39 | CCOC(=O)C1CCC(CNC(=O)N2CCN(Cc3nc4ccccc4o3)CC2)CC1 (stereo not drawn) | 676
40 | CCCn1cc(S(=O)(=O)Nc2ccc(C)c(C)c2)c2cccnc21 | 960
41 | CCn1ccc(NC(=O)NC(C)(C)C)n1 | 705
42 | COC(=O)c1ccc(NC(=O)C2=Cc3ccccc3OC=C2)cc1 | 1060
43 | C=CCNC(=O)c1nc(C(=O)N2CCN(c3ccccn3)CC2)cs1 | 567
44 | Cc1ccc2c(=O)c3c([nH]c2c1C)CCN(CC(=O)Nc1cccc(Cl)c1)C3 | 640
45 | Cc1cccc(CN2C[C@@H]3C(=O)N(C)C(=O)[C@@H]3C2)c1 | 583
46 | Cc1c(-c2ccnc(N3CCN(C)CC3)n2)cnc2nc(SCc3ccccc3)nn12 | 672

Row | SMILES | RP-LC retention time [s]
47 | Cc1cccc(NC(=O)c2nc(N3CCSCC3)c3cnn(C)c3n2)c1 | 901
48 | COc1cccc(C2CC(c3ccc(Cl)cc3)=NC3(CCN(C(C)=O)CC3)N2)c1O (stereo not drawn) | 686
49 | O=C(O)c1ccc(S(=O)(=O)NCc2ccccn2)cc1 | 543
50 | O=C(CCC1CCN(c2cc(NC3CC3)ncn2)CC1)NCc1ccc(F)cc1 | 649
51 | O=C(NCCC1=CCCCC1)c1nnc(-c2ccc(S(=O)(=O)N3CCCCC3)cc2)o1 | 1160
52 | CCOC(=O)c1ccccc1NC(=O)CSc1ccc(-c2ccc3c(c2)OCO3)nn1 | 974
53 | Cc1cc(C)c(S(=O)(=O)NCC2CN(C)CC23CCCCC3)c(C)c1 (stereo not drawn) | 590
54 | CSc1ccc(CNC(=O)CN2CC=C(c3cnn(-c4ccccc4)c3)CC2)cc1 | 720
55 | CC(=O)N1CCCc2cc(S(=O)(=O)N3CCC(C(=O)NCC4CCCO4)CC3)ccc21 (stereo not drawn) | 658
56 | Fc1ccc(-c2noc(-c3nnc(NCCN4CCOCC4)c4ccccc34)n2)cc1 | 701
57 | Cc1cccc(OCC(=O)N2CCN(S(=O)(=O)c3c(C)nn(C(C)C)c3C)CC2)c1 | 904
58 | Cc1ccc(F)cc1S(=O)(=O)N1CCn2c(nn(CC3CC3)c2=O)C1 | 797
59 | Cc1cccc(-c2cc3n(n2)CCCN(C(=O)COc2ccc(Cl)cc2)C3)c1 | 1010
60 | Cc1cccc(C)c1-n1ccn(Cc2nc(-c3ccc(F)c(Cl)c3)no2)c(=O)c1=O | 976
61 | COc1cccc(Cn2nc3ccc(S(=O)(=O)N4CCOCC4)cn3c2=O)c1 | 783
62 | CN(Cc1ccccc1)C(=O)C1CCN(S(=O)(=O)c2ccc(-c3noc(C4CC4)n3)cc2)CC1 | 1100
63 | COc1cc(N)c(Cl)cc1C(=O)OCCN1CCCCC1 | 629
64 | COCCCN(CC(=O)N1CCc2sccc2C1COc1ccccc1)C(=O)C(C)C (stereo not drawn) | 892
65 | CCc1nnc([C@@H]2CC(F)(F)CN2C(=O)Cc2cc(C)no2)o1 | 674
66 | COCCCNC(=O)c1nnc(-c2ccc(S(=O)(=O)N3CCC(C)CC3)cc2)o1 | 762
67 | CC(C)c1c(C2CCN(C(=O)NCc3ccccc3)CC2)noc1N | 741
68 | CCC(=O)N1CCc2c(-c3ccccc3)cccc2[C@H]1C | 1030

Reference: the METLIN SMRT retention time set (Domingo-Almenara et al. 2019)
